The source of these data is PMC6132986, “Assessing the toxicity of thiamethoxam, in natural LUFA 2.2 soil, through three generations of Folsomia candida” (Ecotoxicology (London, England), 2018).

“And” between values parts separate entries of the source, which are not always exact repeats. Equal entries are not always repeated. Where two headings read alike, the source gives them in different places.

The test system of series [1] is Folsomia candida. As to conditions: cited from earlier work.
The conditions of series [2]: cited from earlier work.
A short description of series [3]: Chemical analysis (LC-MSMS) and degradation of thiamethoxam in LUFA 2.2 soil. Type of series: physicochemical. On the procedure:
The samples were analysed for thiamethoxam by the commercial certified analytical laboratory Groen Agro Control in Delfgauw, The Netherlands, using LC-MSMS. Detection limit was 0.01 mg/kg dry soil.
Using data on the measured concentrations of thiamethoxam, half-life (DT50) values were estimated assuming first order degradation kinetics. The equation C = C0 × e^−k×t was fitted to the data, with C = concentration at time t in days, C0 is concentration at t = 0 and k = degradation rate constant (day^−1). DT50 was derived as ln(2)/k.

Series [4] deals with Folsomia candida. As to the kind of experiment: Folsomia candida multigeneration (P, F1, F2) survival and reproduction test in freshly spiked LUFA 2.2 soil. Conditions: nominal concentrations. In kind it is in vivo. As to the method: All tests were performed using natural standard LUFA 2.2 soil (LUFA Speyer, Germany), having approximately 1.6% organic carbon, water holding capacity (WHC) of 45%, and soil pH (0.01 M CaCl2) measured in a preliminary test, ranging between 5.03 and 5.87.
Stock solutions of both compounds were prepared in milli-Q water in order to spike the chemicals in the test soil and at the same time bring its moisture content to 50% of the water holding capacity (WHC). The concentration range used for both compounds was: Control −0.04 −0.12 −0.37 −1.1 −3.3 −10 mg a.s./kg dry soil. Due to the toxic effect of the neonicotinoids, the three highest concentrations had to be dropped for F1 and F2 generations. Tests were performed in 100 ml glass jars, containing 30 g moist soil, using five replicate test jars with animals, and two replicates containing approximately 15 g of soil each, without animals (soil analysis). All the test jars were weighed at the start of the test, so the water loss could be checked and replenished, if needed, on a weekly basis.
Folsomia candida Willem 1902 is a cosmopolitan arthropod, belonging to the Collembola order, which is phylogenetically related to the Insecta. The family Isotomidae have a ventral tube or collophore which is involved in the exchange of fluids with the external environment, being an important route of exposure to contaminants present in the pore water. Sexual maturity of F. candida is achieved between 21 to 24 days after hatching (sixth instar), and each individual can lay about 30 to 50 eggs per batch (Fountain and Hopkin [2005]). Adults of this species were taken from cultures at the Department of Ecological Science at the Vrije Universiteit in Amsterdam. In order to obtain synchronized animals, adults were transferred from the culture to 125 ml translucent plastic boxes with a 2 cm layer of plaster of Paris and activated charcoal (8:1), moistened with water, and left for a period of 2–3 days to lay eggs, after which they were removed. The eggs were incubated under a 12 h light/12 h dark regime at 20°C and 75% relative humidity, where they hatched. Juveniles of 10–12 days old were used for starting the test for the parental (P) generation.
Ten age-synchronized animals (10–12 days old) were added to the replicate test jars in generation P. For generations F1 and F2 the age of the animals transferred was around 8–9 days. […] The same procedure was performed for ending the tests with the F1 (after 35–36 days) and F2 (28 days) generations. At the end of the tests, the jars were flooded with water to allow the animals to float and being photographed using a Nikon COOLPIX P510 camera. The images were analysed using the software ImageJ, a Java-based processing program adjusted for counting the animals. For the P and F1 generations, only the juveniles produced in all replicates of each concentration were transferred, using a sieve, to a single container with a plaster of Paris bottom, and left overnight in a climate room, at 20 ± 2 °C, with a 75% relative humidity and a photoperiod of 16:8 h […]. On the following day, batches of 10 randomly selected animals were transferred to jars, with their respective concentration, filled with soil freshly spiked, and covered with an opaque black plastic lid, loosely attached to the rim to allow for aeration. At the start and every week a few grains of dry baker’s yeast (Instant yeast from Algist Bruggeman N.V, Ghent, Belgium) and water were added to the test vessels if needed.
All the dose-response data was analysed using the package “drc”(dose response curve) in the software R, using a general model fitting function–drm, with the option for model select (Ritz and Streibig [2005]). The endpoints LC50, addressing the effects on adult survival, and ECx, addressing sub-lethal effects on the juvenile population were expressed on the basis of nominal soil concentrations.

The conditions of series [5]: pH 7, 20°C; ref Jeschke et al. [2011]; cited from earlier work.
Where [6] appears, read: LUFA 2.2 soil, ref De Lima e Silva et al. [2017], van Gestel et al. [2017].
[7] abbreviates: Lufa 2.2 soil, ref de Lima e Silva et al. [2017].
The mark [8] stands for this setting: Lufa 2.2 soil, ref van Gestel et al. [2017].
Where [9] appears, read: sphagnum peat (10%), kaolinite clay (20%), quartz sand (70%), ref Reynolds [2008].
Setting [10] is: F1 generation, 35-36 days exposure.
[11] abbreviates: F1 generation, 35-36 days exposure, listed as pure thiamethoxam.
Where [12] appears, read: F2 generation, 28 days exposure.
Setting [13] is: F2 generation, 28 days exposure, listed as pure thiamethoxam.

Take `O=[N+]([O-])NC1=NCCN1Cc1ccc(Cl)nc1` [Imidacloprid, imidacloprid]: the EC50 is on record as 0.26–0.29 mg a.s./kg dry soil in the series on Folsomia candida [1] (setting [6]), 0.26 mg a.s./kg in the series with Folsomia candida [1] (setting [7]), 0.29 mg a.s./kg in the series on Folsomia candida [1] (setting [8]) and 0.26 mg a.s./kg in the series with Folsomia candida [1] (setting [9]). Moreover, the LC50 in the series on Folsomia candida [1] (setting [6]) is 0.44–0.47 mg a.s./kg dry soil; in the series with Folsomia candida [1] (setting [7]), 0.47 mg a.s./kg; with Folsomia candida [1] (setting [8]) it was 0.44 mg a.s./kg; with Folsomia candida [1] (setting [9]), 0.86 mg a.s./kg.

As for `N#C/N=C1\SCCN1Cc1ccc(Cl)nc1` [thiacloprid], the half-life in soil in series [2] (ref Van Gestel et al. [2017]) is 10 to 12 days.

Regarding `CN1COCN(Cc2cnc(Cl)s2)/C1=N\[N+](=O)[O-]` [Thiamethoxam Pure, thiamethoxam], the half-life was 139 days in series [3] (LUFA 2.2 soil, average over nominal 0.12-1.1 mg/kg dry soil, read-out: DT50 (half-life in soil), average (converted)) and 112 to 156 days in series [3] (LUFA 2.2 soil, nominal 0.12-1.1 mg/kg dry soil, read-out: DT50 (half-life in soil), range over the concentrations). For the same compound, the “DT50 (half-life in soil), range over the concentrations” value in series [3] (LUFA 2.2 soil, nominal 0.12-1.1 mg/kg dry soil) is 112 to 165 days. Also, the “Concentration in soil as % of the nominal” value in series [3] (first day of the experiment (t = 0), pure and Actara treatments together) is listed as 75–100%. The half-life at 0.12 mg/kg dry soil in series [3] (nominal 0.12 mg/kg dry soil, LUFA 2.2 soil, first order degradation kinetics, read-out: DT50 (half-life in soil) (converted)) is 165 days. Also, the half-life at 0.37 mg/kg dry soil in series [3] (nominal 0.37 mg/kg dry soil, LUFA 2.2 soil, first order degradation kinetics, read-out: DT50 (half-life in soil) (converted)) is 140 days. Moreover, the half-life at 1.1 mg/kg dry soil in series [3] (nominal 1.1 mg/kg dry soil, LUFA 2.2 soil, first order degradation kinetics, read-out: DT50 (half-life in soil) (converted)) is 112 days. Further, the “Recovery Rate” value in series [3] (t = 0, nominal 0.12 mg/kg dry soil) is 75%; in series [3] (t = 0, nominal 0.37 mg/kg dry soil) it was 84%; in series [3] (t = 0, nominal 1.1 mg/kg dry soil), 85%; in series [3] (t = 28 days, nominal 0.12 mg/kg dry soil), 66%; in series [3] (t = 28 days, nominal 1.1 mg/kg dry soil), 72%. The “Measured Concentration of thiamethoxam in soil” value in series [3] (t = 0, nominal 0.12 mg/kg dry soil, LUFA 2.2 soil) is 0.09 mg/kg dry soil; in series [3] (t = 0, nominal 0.37 mg/kg dry soil, LUFA 2.2 soil), 0.31 mg/kg dry soil; in series [3] (t = 0, nominal 1.1 mg/kg dry soil, LUFA 2.2 soil), 0.94 mg/kg dry soil; in series [3] (t = 28 days, nominal 0.12 mg/kg dry soil, LUFA 2.2 soil), 0.08 mg/kg dry soil; in series [3] (t = 28 days, nominal 0.37 mg/kg dry soil, LUFA 2.2 soil), 0.27 mg/kg dry soil; in series [3] (t = 28 days, nominal 1.1 mg/kg dry soil, LUFA 2.2 soil) it was 0.79 mg/kg dry soil. The “EC50 (reproduction)” value is 0.23 (0–0.52) mg a.s./kg dry soil in the series on Folsomia candida [4] (setting [10]); 0.23 mg a.s./kg dry soil in the series on Folsomia candida [4] (setting [11]); 0.30 (0.09–0.50) mg a.s./kg dry soil in the series with Folsomia candida [4] (setting [12]); 0.30 mg a.s./kg dry soil in the series on Folsomia candida [4] (setting [13]); 0.23 (0.20–0.30) mg a.s./kg dry soil in the series with Folsomia candida [4] (Parental generation, 28 days exposure (Actara 27 days)); 0.23–0.25 mg a.s./kg dry soil in the series on Folsomia candida [4] (Parental generation, 28 days exposure (Actara 27 days), listed as pure thiamethoxam). For the same compound, the “LC50 (adult survival)” value is above 0.37 mg a.s./kg dry soil in the series with Folsomia candida [4] (setting [10]); above 0.37 mg a.s./kg dry soil with Folsomia candida [4] (setting [11]); above 0.37 mg a.s./kg dry soil in the series with Folsomia candida [4] (setting [12]); above 0.37 mg a.s./kg dry soil with Folsomia candida [4] (setting [13]); 0.32 (0.30–0.40) mg a.s./kg dry soil with Folsomia candida [4] (Parental generation, 28 days exposure (Actara 27 days), 95% CI in brackets); 0.32–0.35 mg a.s./kg dry soil and 0.32 mg a.s./kg dry soil in the series on Folsomia candida [4] (Parental generation, 28 days exposure (Actara 27 days), 95% CI in brackets, listed as pure thiamethoxam). For the same compound, the “EC10 (reproduction)” value in the series on Folsomia candida [4] (F1 generation) is 0.06 (0–0.14) mg a.s./kg dry soil; in the series on Folsomia candida [4] (F2 generation), 0.15 (0–0.64) mg a.s./kg dry soil; in the series on Folsomia candida [4] (Parental generation), 0.07 (0.03–0.10) mg a.s./kg dry soil. For the same compound, the results for the “EC20 (reproduction)” value in the series on Folsomia candida [4] (F1 generation), with Folsomia candida [4] (F2 generation) and in the series on Folsomia candida [4] (Parental generation) were 0.09 (0–0.20) mg a.s./kg dry soil, 0.20 (0–0.63) mg a.s./kg dry soil and 0.12 (0.070–0.20) mg a.s./kg dry soil, respectively. The “Log KOW” value in series [5] is −0.13. The octanol-water partition coefficient in series [5] is 0.741. For the same compound, the half-life in soil in series [2] (ref Bonmatin et al. [2015]) is at most 355 days.
